Reference: patent US11046680B1, “Heteroaryl-substituted triazoles as APJ receptor agonists” (priority 2016, dated 2021)

Biological target: human APJ receptor (Homo sapiens (Human), UniProt P35414)
Assay: biochemical
Format: biochemical
Details: [35S]GTPγS binding, CHO membranes expressing human APJ receptor; read-out: Activity hAPJ SPA EC50 IP
Method in brief: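 Membranes of a stable CHO line carrying human APJ (pFLAG-CMV-3) were used in a GTPγS binding format; buffer GDP, MgCl2 and NaCl were optimized, and plates were read after 90 min at RT.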

Sequence of human APJ receptor (P35414 whole entry): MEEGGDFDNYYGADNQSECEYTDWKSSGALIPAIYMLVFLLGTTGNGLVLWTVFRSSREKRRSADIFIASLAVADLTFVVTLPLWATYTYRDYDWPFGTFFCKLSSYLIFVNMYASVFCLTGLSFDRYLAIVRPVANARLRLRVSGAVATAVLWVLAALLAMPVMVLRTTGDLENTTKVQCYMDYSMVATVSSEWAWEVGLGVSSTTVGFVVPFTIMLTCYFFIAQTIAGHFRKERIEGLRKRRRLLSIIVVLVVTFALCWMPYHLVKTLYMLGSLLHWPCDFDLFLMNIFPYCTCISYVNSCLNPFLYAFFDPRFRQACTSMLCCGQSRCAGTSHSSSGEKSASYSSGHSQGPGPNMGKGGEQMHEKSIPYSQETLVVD

Row | SMILES | EC50 [nM]
1 | COc1cccc(OC)c1-n1c(NS(=O)(=O)CC[C@@H](O)C2CCCC2)nnc1-c1cccs1 (mixture of isomers) [Example 362.0, (R)-3-Cyclopentyl-N-(4-(2,6-dimethoxyphenyl)-5-(thiophen-2-yl)-4H-1,2,4-triazol-3-yl)-3-hydroxypropane-1-sulfonamide and (S)-3-cyclopentyl-N-(4-(2,6-dimethoxyphenyl)-5-(thiophen-2-yl)-4H-1,2,4-triazol-3-yl)-3-hydroxypropane-1-sulfonamide] | 3
2 | Cc1cnc([C@@H](C)[C@H](C)S(=O)(=O)Nc2nnc(-c3cnn4c3CCC4)n2-c2c(F)cccc2F)nc1 [Example 483.0, (2S,3R)-N-(4-(2,6-difluorophenyl)-5-(5,6-dihydro-4H-pyrrolo[1,2-b]pyrazol-3-yl)-4H-1,2,4-triazol-3-yl)-3-(5-methylpyrimidin-2-yl)butane-2-sulfonamide] | 5.4
3 | COc1cccc(OC)c1-n1c(NS(=O)(=O)[C@@H](C)[C@H](OC)c2ncc(Cl)cn2)nnc1-c1cnn(C)c1C(C)C [Example 501.0, (1R,2S)-1-(5-chloropyrimidin-2-yl)-N-(4-(2,6-dimethoxyphenyl)-5-(5-isopropyl-1-methyl-1H-pyrazol-4-yl)-4H-1,2,4-triazol-3-yl)-1-methoxypropane-2-sulfonamide] | 9.3
4 | CCc1csc(-c2nnc(NS(=O)(=O)[C@H](C)Cc3ncc(F)cn3)n2-c2c(OC)cccc2OC)n1 (single isomer, unassigned) [Example 105.0, (R)-N-(4-(2,6-dimethoxyphenyl)-5-(4-ethylthiazol-2-yl)-4H-1,2,4-triazol-3-yl)-1-(5-fluoropyrimidin-2-yl)propane-2-sulfonamide or (S)-N-(4-(2,6-dimethoxyphenyl)-5-(4-ethylthiazol-2-yl)-4H-1,2,4-triazol-3-yl)-1-(5-fluoropyrimidin-2-yl)propane-2-sulfonamide] | 1.4
5 | COc1cccc(OC)c1-n1c(NS(=O)(=O)[C@@H](C)[C@H](C)c2cnc(C)cn2)nnc1-c1ccn(C)n1 [Example 306.0, (2S,3R)-N-(4-(2,6-dimethoxyphenyl)-5-(1-methyl-1H-pyrazol-3-yl)-4H-1,2,4-triazol-3-yl)-3-(5-methyl-2-pyrazinyl)-2-butanesulfonamide] | 2.5
6 | COc1cccc(OC)c1-n1c(NS(=O)(=O)[C@@H](C)[C@H](OC)c2cnc(C)cn2)nnc1-c1cc(C)[nH]n1 [Example 348.0, (1R,2S)-N-(4-(2,6-dimethoxyphenyl)-5-(5-methyl-1H-pyrazol-3-yl)-4H-1,2,4-triazol-3-yl)-1-methoxy-1-(5-methyl-2-pyrazinyl)-2-propanesulfonamide] | 4.3
7 | COC[C@@H](C)n1c(NS(=O)(=O)[C@@H](C)[C@H](OC)c2ncc(Cl)cn2)nnc1-c1ccn(C)n1 [Example 531.0, (1R,2S)-1-(5-chloro-2-pyrimidinyl)-1-methoxy-N-(4-((2R)-1-methoxy-2-propanyl)-5-(1-methyl-1H-pyrazol-3-yl)-4H-1,2,4-triazol-3-yl)-2-propanesulfonamide] | 50
8 | COCC1(n2c(NS(=O)(=O)[C@@H](C)[C@H](OC)c3ncc(Cl)cn3)nnc2-c2cnn3ccccc23)CC1 [Example 509.0, (1R,2S)-1-(5-chloropyrimidin-2-yl)-1-methoxy-N-(4-(1-(methoxymethyl)cyclopropyl)-5-(pyrazolo[1,5-a]pyridin-3-yl)-4H-1,2,4-triazol-3-yl)propane-2-sulfonamide] | 4.1
9 | COc1cnc([C@H](C)[C@@H](C)S(=O)(=O)Nc2nnc(-c3ccn(C)n3)n2-c2c(OC)cccc2OC)nc1 [Example 457.0, (2R,3S)-N-(4-(2,6-dimethoxyphenyl)-5-(1-methyl-1H-pyrazol-3-yl)-4H-1,2,4-triazol-3-yl)-3-(5-methoxy-2-pyrimidinyl)-2-butanesulfonamide] | 25
10 | COc1cnc([C@@H](C)[C@H](C)S(=O)(=O)Nc2nnc(-c3ccn(C)n3)n2-c2c(OC)cccc2OC)cn1 [Example 287.0, (2S,3R)-N-(4-(2,6-dimethoxyphenyl)-5-(1-methyl-1H-pyrazol-3-yl)-4H-1,2,4-triazol-3-yl)-3-(5-methoxy-2-pyrazinyl)-2-butanesulfonamide] | 0.42
11 | COc1cccc(OC)c1-n1c(NS(=O)(=O)C[C@@H](O)c2ccc(F)cc2F)nnc1-c1ccn(C)n1 (racemic) [Example 116.0, (S)-2-(2,4-difluorophenyl)-N-(4-(2,6-dimethoxyphenyl)-5-(1-methyl-1H-pyrazol-3-yl)-4H-1,2,4-triazol-3-yl)-2-hydroxyethanesulfonamide and (R)-2-(2,4-difluorophenyl)-N-(4-(2,6-dimethoxyphenyl)-5-(1-methyl-1H-pyrazol-3-yl)-4H-1,2,4-triazol-3-yl)-2-hydroxyethanesulfonamide] | 2.6
12 | COc1cccc(OC)c1-n1c(NS(=O)(=O)[C@@H](C)[C@H](C)c2ncc(C#N)cn2)nnc1-c1cc2n(n1)CCC2 [Example 225.0] | 2
13 | COc1cccc(OC)c1-n1c(NS(=O)(=O)[C@H](C)Cc2ncc(F)cn2)nnc1-c1ncccn1 (single isomer, unassigned) [Example 58.0, (R)-N-(4-(2,6-dimethoxyphenyl)-5-(pyrimidin-2-yl)-4H-1,2,4-triazol-3-yl)-1-(5-fluoropyrimidin-2-yl)propane-2-sulfonamide or (S)-N-(4-(2,6-dimethoxyphenyl)-5-(pyrimidin-2-yl)-4H-1,2,4-triazol-3-yl)-1-(5-fluoropyrimidin-2-yl)propane-2-sulfonamide] | 17
14 | COc1cccc(OC)c1-n1c(NS(=O)(=O)[C@@H](C)[C@H](C)c2ncc(C)cn2)nnc1-c1noc2ccccc12 [Example 77.0, (2S,3R)-N-(5-(benzo[d]isoxazol-3-yl)-4-(2,6-dimethoxyphenyl)-4H-1,2,4-triazol-3-yl)-3-(5-methylpyrimidin-2-yl)butane-2-sulfonamide] | 4.1
15 | COc1cccc(OC)c1-n1c(NS(=O)(=O)[C@H](C)[C@@H](C)c2ncc(C)cn2)nnc1-c1csc(C)n1 (stereo in doubt) [Example 2.0, (2R,3S)-N-(4-(2,6-dimethoxyphenyl)-5-(2-methylthiazol-4-yl)-4H-1,2,4-triazol-3-yl)-3-(5-methylpyrimidin-2-yl)butane-2-sulfonamide] | 0.32
16 | COc1ccc(Br)cc1-n1c(NS(=O)(=O)CCc2ccc(Cl)cc2)nnc1-c1cccs1 [Example 133.0, N-(4-(5-Bromo-2-methoxyphenyl)-5-(thiophen-2-yl)-4H-1,2,4-triazol-3-yl)-2-(4-chlorophenyl)ethanesulfonamide] | 363
17 | COc1cccc(OC)c1-n1c(NS(=O)(=O)C(C)Cc2ncc(F)cn2)nnc1-c1cc(C)no1 (stereo in doubt) [Example 57.0, (R)-N-(4-(2,6-dimethoxyphenyl)-5-(3-methylisoxazol-5-yl)-4H-1,2,4-triazol-3-yl)-1-(5-fluoropyrimidin-2-yl)propane-2-sulfonamide and (R)-N-(4-(2,6-dimethoxyphenyl)-5-(3-methylisoxazol-5-yl)-4H-1,2,4-triazol-3-yl)-1-(5-fluoropyrimidin-2-yl)propane-2-sulfonamide] | 42
18 | COc1ccc(C#N)cc1-n1c(NS(=O)(=O)CCc2ccc(Cl)cc2)nnc1-c1cccs1 [Example 247.0, 2-(4-chlorophenyl)-N-(4-(5-cyano-2-methoxyphenyl)-5-(thiophen-2-yl)-4H-1,2,4-triazol-3-yl)ethanesulfonamide] | 166
19 | COc1cccc(OC)c1-n1c(NS(=O)(=O)[C@H](C)Cc2ncc(F)cn2)nnc1-c1nc(C(C)C)cs1 (single isomer, unassigned) [Example 157.0, (R)-N-(4-(2,6-dimethoxyphenyl)-5-(4-isopropylthiazol-2-yl)-4H-1,2,4-triazol-3-yl)-1-(5-fluoropyrimidin-2-yl)propane-2-sulfonamide or (S)-N-(4-(2,6-dimethoxyphenyl)-5-(4-isopropylthiazol-2-yl)-4H-1,2,4-triazol-3-yl)-1-(5-fluoropyrimidin-2-yl)propane-2-sulfonamide] | 58
20 | COc1cccc(OC)c1-n1c(NS(=O)(=O)CCc2ccc(Cl)cc2)nnc1-c1nc(C)cs1 [Example 142.0, 2-(4-chlorophenyl)-N-(4-(2,6-dimethoxyphenyl)-5-(4-methylthiazol-2-yl)-4H-1,2,4-triazol-3-yl)ethanesulfonamide] | 17
21 | COc1cccc(OC)c1-n1c(NS(=O)(=O)[C@@H](C)[C@H](OC)c2ncc(Cl)cn2)nnc1-c1n[nH]c2ccccc12 [Example 421.0, (1R,2S)-1-(5-chloropyrimidin-2-yl)-N-(4-(2,6-dimethoxyphenyl)-5-(1H-indazol-3-yl)-4H-1,2,4-triazol-3-yl)-1-methoxypropane-2-sulfonamide] | 4.5
22 | COc1cccc(OC)c1-n1c(NS(=O)(=O)C[C@H](O)c2ccc(Cl)cc2)nnc1-c1ccn(C)n1 (single isomer, unassigned) [Example 374.0, (R)-2-(4-Chlorophenyl)-N-(4-(2,6-dimethoxyphenyl)-5-(1-methyl-1H-pyrazol-3-yl)-4H-1,2,4-triazol-3-yl)-2-hydroxyethanesulfonamide or (R)-2-(4-chlorophenyl)-N-(4-(2,6-dimethoxyphenyl)-5-(1-methyl-1H-pyrazol-3-yl)-4H-1,2,4-triazol-3-yl)-2-hydroxyethanesulfonamide] | 7
23 | COc1cccc(OC)c1-n1c(NS(=O)(=O)[C@H](C)[C@@H](OC)c2ncc(F)cn2)nnc1-c1ccn(C)n1 (single isomer, unassigned) [Example 118.0, (1S,2R)-N-(4-(2,6-dimethoxyphenyl)-5-(1-methyl-1H-pyrazol-3-yl)-4H-1,2,4-triazol-3-yl)-1-(5-fluoropyrimidin-2-yl)-1-methoxypropane-2-sulfonamide or (1R,2S)-N-(4-(2,6-dimethoxyphenyl)-5-(1-methyl-1H-pyrazol-3-yl)-4H-1,2,4-triazol-3-yl)-1-(5-fluoropyrimidin-2-yl)-1-methoxypropane-2-sulfonamide] | 100
